Legend:
22RV1 cells = details: Homo sapiens, 22Rv1, 144 h, read-out: 22RV1 IC50 (nM), 22RV1 cells, 6 days culture, CCK-8, OD 450 nm
[1] = target: T1, androgen receptor (AR) splicing variant AR-v7 (Homo sapiens, UniProt P10275); assay: Degradation activity on androgen receptor splicing variant AR-v7 in 22RV1 cells (ELISA); format: cell-based; details: AR-v7 degradation in 22RV1 cells, 48 h, class symbols
T1 construct: The degradation activity of compounds on AR-v7 in 22RV1 cells; host or cells: 22RV1 cells
T1 sequence (P10275 1-644 isoform P10275-3): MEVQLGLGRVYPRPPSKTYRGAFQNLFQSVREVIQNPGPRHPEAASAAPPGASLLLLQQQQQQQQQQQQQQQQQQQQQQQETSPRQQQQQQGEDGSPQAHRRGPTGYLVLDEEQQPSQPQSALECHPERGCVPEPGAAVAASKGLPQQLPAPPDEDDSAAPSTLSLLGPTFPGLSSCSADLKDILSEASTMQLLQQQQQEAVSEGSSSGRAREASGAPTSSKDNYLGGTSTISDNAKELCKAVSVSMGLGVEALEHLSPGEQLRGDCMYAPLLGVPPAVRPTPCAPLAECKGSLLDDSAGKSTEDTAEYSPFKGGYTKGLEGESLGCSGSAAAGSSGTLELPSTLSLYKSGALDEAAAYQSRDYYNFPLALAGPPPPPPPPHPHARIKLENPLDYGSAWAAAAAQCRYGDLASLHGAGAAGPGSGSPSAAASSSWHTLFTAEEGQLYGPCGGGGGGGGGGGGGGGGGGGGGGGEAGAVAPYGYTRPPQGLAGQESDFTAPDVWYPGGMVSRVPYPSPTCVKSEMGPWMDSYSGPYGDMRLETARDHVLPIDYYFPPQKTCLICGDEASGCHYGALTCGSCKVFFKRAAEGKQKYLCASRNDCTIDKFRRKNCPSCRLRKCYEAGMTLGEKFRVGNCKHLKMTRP

[2] = Pharmacokinetics in mice (plasma exposure after oral administration); format: in vivo; details: mouse, ICR mice, oral (i.g.) 3 mg/kg, read-out: After oral administration of 3 mg/kg, mouse plasma exposure AUCinf

| IC50 (22RV1 cells) [nM] | DC50 [1] [nM] | AUC(0-inf) [2] [ng·h/mL] | SMILES |
| --- | --- | --- | --- |
| 4 | < 10 | 1000 to 5000 | CC(C)(c1ccc(Oc2cnc(-n3ccnn3)cn2)cc1)c1ccc(O[C@H]2C[C@H](Nc3ccc4c(c3)C(=O)N(C3CCC(=O)NC3=O)C4=O)C2)cc1 (stereo partly drawn) [Example 584] |
| 13 | < 10 | 5000 to 30000 | Cc1nc(-c2cc(Oc3ccc(C(C)(C)c4ccc(O[C@H]5C[C@H](Nc6ccc7c(c6)C(=O)N(C6CCC(=O)NC6=O)C7=O)C5)cc4)cc3)ncn2)no1 (stereo partly drawn) [Example 588] |

Reference: patent US20250051347A1, “BIFUNCTIONAL CHIMERIC HETEROCYCLIC COMPOUND AND USE THEREOF AS ANDROGEN RECEPTOR DEGRADER” (Hinova Pharmaceuticals, Inc., priority 2021, published 2025)
